Source: patent publication EP0317105A2, “Phenylalanine derivative and its uses” (AJINOMOTO CO., INC., priority 1987, dated 1989)

Columns and labels:
[1] = test system: male ICR mice; experiment: Toxicity test: oral administration to mice, survival and LD50; format: in vivo; details: for Number of living mice: among 10 head, observation after two weeks; for LD₅₀ values: oral, mice, in words, compared with the known absorption accelerator
Experimental: A known absorption accelerator, N-(α-fluoro-4-methylcinnamoyl)-L-phenylalanine, and the two absorption accelerators of this invention were each suspended in 0.5% solution of CMC sodium salt at different concentrations, each suspension was orally administered to male ICR mice of 4-week age ( each group consisting of 10 head ), and LD₅₀ values were measured based on the observations after two weeks. The result is summarized in Table 2, in which the figures show the number of living mice when 1.0 g/Kg and 3.0 g/Kg of the compounds were administered.

[2] = Activity test using mice: oral insulin co-administered with absorption accelerator, blood glucose and blood insulin measured; format: in vivo, female ICR-CDI mice; details: insulin 0.5 U/10 g + absorption accelerator 3 mg/10 g, vs control group
Experimental: Each of the absorption accelerators prepared above was suspended in 0.5% CMC/0.05M Tris-HCl buffer ( pH 7.8 ), insulin was admixed to this suspension, and the resulting mixture was orally administered to a group of female ICR-CDI mice ( five head of 5- to 7-week age ) fasted for 18 hours ( insulin: 0.5 U/10 g, absorption accelerator: 3 mg/10 g ). The rate of reduction in blood glucose (%) and the factor of increase in the insuline level in the blood, in comparison with the data of the control group, were measured at definite intervals.

[3] = Activity test using dogs: oral gelatin capsules of insulin plus absorption accelerator, serum glucose measured; format: in vivo, male beagles; details: 50 U/Kg insulin + 25 mg/Kg sodium salt of absorption accelerator, average of two dogs, compared with N-(α-fluoro-4-methylcinnamoyl)-L-phenylalanine
Experimental: An absorption acceleration test was conducted using dogs to compare the absorption accelerators of this invention with a known absorption accelerator, N-(α-fluoro-4-methylcinnamoyl)-L-phenylalanine.
Gelatin capsules containing 50 U/Kg insulin and 25 mg/Kg sodium salt of absorption accelerator were orally administered to male beagles of 6- to 8-month age fasted for 18 hours. In this test, the same two dogs were used for each of test samples.
A blood sample was taken from each dog at definite intervals from the peripheral vein in a paw, the amount of glucose in the serum was measured, and the average of two head was calculated. The result is sumarized in the figure.

| SMILES | Number of living mice ([1]; 1.0 g/Kg oral) | Number of living mice ([1]; 3.0 g/Kg oral) | Factor of increase in blood-insulin level ([2]; 15 minutes) | Rate of reduction in blood glucose level ([2]; 15 minutes) | Factor of increase in blood-insulin level ([2]; 30 minutes) | Rate of reduction in blood glucose level ([2]; 30 minutes) | Rate of reduction in blood glucose level ([2]; 60 minutes) | effect of reducing the glucose level in the serum [3] | LD₅₀ values [1] | Factor of increase in blood-insulin level ([2]; 60 minutes, "-" = no increase in blood insulin level was observed) |
| --- | --- | --- | --- | --- | --- | --- | --- | --- | --- | --- |
| Cc1ccc(C=C(F)C(=O)N[C@@H](Cc2ccccc2)C(=O)O)cc1 [N-(α-fluoro-4-methylcinnamoyl)-L-phenylalanine, reference compound] | 10 | 6 |  |  |  |  |  |  |  |  |
| Cc1ccc(C(Cl)=CC(=O)N[C@H](Cc2ccccc2)C(=O)O)cc1 [N-(β-chloro-4-methylcinnamoyl)-D-phenylalanine] | 10 | 6 | 2) 2.1 | 1) 35.7% | 2) 3.3 | 1) 47.8% | 1) 42.8% | far higher effect of reducing the glucose level in the serum over longer periods | equal to, or higher than, that of the known absorption accelerator |  |
| Cc1ccc(C(Cl)=CC(=O)N[C@@H](Cc2ccccc2)C(=O)O)cc1 [N-(β-chloro-4-methylcinnamoyl)-L-phenylalanine] | 10 | 10 | 2) 10.5 | 1) 42.1% | 2) 2.0 | 1) 21.6% | 1) 12.2% | far higher effect of reducing the glucose level in the serum over longer periods | equal to, or higher than, that of the known absorption accelerator | 2) 2.1 |
